Experimental findings from patent publication US20250186411A1, “Methods of Treating Disorders Associated with Overactivation of IKKB” (The United States Government as represented by the …, priority 2023, published 2025) are described below.

Data set [1] has as its system KLF15 promoter with mutation in the GRE (pEZX-FR03hKLF5p-mutant podocytes). Nature of the data set: GR-mutant KLF15 reporter assay. In kind it is cell-based, human. Conditions: as compared to DMSO. On the technique in general: In a reporter assay the amount or activity of a reporter protein is the signal.
Data set [2] has as its system KLF15 promoter (pEZX-FR03hKLF5p human podocytes). Nature of the data set: Lipopolysaccharide treatment in human podocytes, KLF15 reporter activity. The class given is cell-based. The conditions noted are these: as compared to DMSO. On the procedure:
(§1) Differentiated pEZX-FR03hKLF5p human podocytes were treated with 25 μg/ml lipopolysaccharide (LPS) or vehicle and 1 μM KLF15 agonist or vehicle control for 24 hours. Firefly and renilla luciferase assay were measured initially to determine relative KLF15 reporter activity.

The subject of data set [3] is KLF15 promoter (pEZX-FR03hKLF15p human podocytes). Nature of the data set: KLF15 reporter high-throughput screening assay in human podocytes (firefly/renilla luciferase). In kind it is cell-based. Conditions: for fold induction at 1 µM: Homo sapiens, read-out: Fold Change (KLF15 reporter activity). How it is done:
Briefly, these podocytes proliferate under permissive conditions (gamma interferon at 33° C.), but differentiate under nonpermissive conditions (37° C.).
The amplified fragment contains MluI and PmeI RE sites and was subcloned into the MluI and PmeI cloning site of the pEZX-FR03 Firefly luciferase (FLuc) and Renilla luciferase (Rluc) reporter cloning vector (GeneCopoeia) to generate pEZX-FR03hKLF15p. Following verification of the sequence by restriction and μsequencing, the pEZX-FR03hKLF15p construct (which contains a puromycin resistance cassette) was transfected into human podocytes followed by selection in puromycin-containing media for 2 weeks. Surviving podocytes clones were pooled together for further analysis.
The library of compounds from the National Cancer Institute (Approved Oncology Drugs Set VI; Natural Products Set III; Diversity Set V; and Mechanistic Diversity Set II) were added to a final concentration of 1 μM in 0.5% DMSO in the low FBS cell culture media (0.2% FBS) using liquid handling system PipetMax (Gilson). After 24 hours incubation at 37° C., the Luc-Pair™ Duo-Luciferase HT Assay Kit (GeneCopoeia LF015) were used and firefly and renilla luciferase activity was determined using the SpectraMax M3 (Molecular Devices). Positive controls were all-trans retinoic acid (atRA) (1 μM) and dexamethasone (DEX) (1 μM). Negative controls were DMSO and cell-free media.
(§2) To identify small molecule inducers of KLF15 expression in human podocytes, human podocytes were generated with a dual reporter, firefly luciferase directed at the KLF15 promoter region and renilla luciferase (pEZX-FR03hKLF15p). […] The positive controls were inducers of KLF15 expression, dexamethasone (DEX) and all-trans retinoic acid (atRA), and […] and cell-free wells served as negative controls.

The test system of another data set is human podocytes. The data set can be described thus: Cell viability of podocytes (renilla activity, MTS assay). The class given is cell-based. The conditions noted are these: for toxicity to human podocytes: analogue screen. How it is done: as §1
(§3) Differentiated pEZX-FR03hKLF5p human podocytes were treated with 0.4 μg/ml adriamycin (ADR) or vehicle and 1 μM KLF15 agonist or vehicle control for 24 hours. Firefly and renilla luciferase assay were measured initially to determine relative KLF15 reporter activity.
To assess cell viability, the CellTiter 96® AQueous One Solution Reagent (Promega) was added to the culture media and plates were incubated for 2 hours at 37° C. with 5% CO2.

Data set [4] has as its system KLF15 promoter (pEZX-FR03hKLF15p human podocytes). Nature of the data set: Half maximal effective concentration (EC50) of KLF15 reporter activity. The class given is cell-based. The conditions noted are these: KLF15 reporter activity, dose-response, read-out: EC50. On the procedure:
The EC50 was determined using nonlinear regression and then choosing the equation of Sigmoidal function, 4PL method (X is log(concentration); or the equation of log(agonist) vs. response—variable slope).
as §2

The test system of data set [5] is KLF15 promoter (pEZX-FR03hKLF5p human podocytes). The data set can be described thus: Adriamycin treatment in human podocytes, KLF15 reporter activity. The class given is cell-based. The conditions noted are these: as compared to DMSO-treated podocytes. On the procedure: as §3
The mark [6] stands for this setting: NCI library hits, 1 μM, 24 hours.

A word on the EC50: it is the concentration that produces a half-maximal response.

Like-named read-outs stand apart in the source and are kept apart here.

On to `CSc1ccc(NC(=O)c2ccc(O)cc2)cc1` [BT501], for which, in data set [1], the KLF15-mutant reporter activity result is “induced KLF15 activity”. Further, the “KLF15 activity in the setting of LPS treatment” value in data set [2] is given as “maintained the elevated KLF15 activity”. Besides, the “KLF15 activity as compared to DEX-treated podocytes” value in data set [3] was “higher KLF15 activity”. Besides, the “toxicity to human podocytes” value in the data set on human podocytes is on record as “no observed toxicity”.
As to `CSc1ccc(NC(=O)Nc2ccc(C#N)cn2)cc1` [BT502], the KLF15-mutant reporter activity entry in data set [1] is “induced KLF15 activity”. The “KLF15 activity in the setting of LPS treatment” value in data set [2] was “maintained the elevated KLF15 activity”. Also, the “KLF15 activity as compared to DEX-treated podocytes” value in data set [3] is “higher KLF15 activity”. For the same molecule, the “toxicity to human podocytes” value in the data set with human podocytes was “no observed toxicity”. Further, in the data set with human podocytes (as compared to DMSO-treated podocytes), the “renilla activity (cell viability) in the setting of LPS treatment” value is listed as “restored renilla activity”.
Turning to `Nc1ccccc1-n1nc2ccc3ccccc3c2n1` [C-9, 2-benzo[e]benzotriazol-2-ylaniline], in data set [1], the KLF15-mutant reporter activity entry is “induced similar KLF15 activity”. In addition, the EC50 in data set [4] (Homo sapiens) was 76.3 nM. In addition, in data set [3] (setting [6]), the fold induction at 1 µM is 2.72. Further, the “KLF15 activity in the setting of adriamycin (ADR)” value in data set [5] is recorded as “induced KLF15 activity”.
As to `O=C(Nc1ccc2ccccc2c1)c1ccc(Cl)cc1Cl` [C-15, 2,4-dichloro-N-(naphthalen-2-yl)benzamide], the KLF15-mutant reporter activity result in data set [1] is listed as “induced similar KLF15 activity”. Besides, the EC50 in data set [4] (Homo sapiens) worked out at 10.9 nM. The fold induction at 1 µM in data set [3] (setting [6]) was 2.97. For the same molecule, the “KLF15 activity in the setting of adriamycin (ADR)” value in data set [5] was “induced KLF15 activity”.
Turning to `Cc1ccc(NNC2=C3N=NN=C3C=CC2=O)cc1` [C-43, 4-[2-(4-methylphenyl)hydrazinyl]benzotriazol-5-one], the EC50 in data set [4] (Homo sapiens) amounted to 866 nM. For the same molecule, the fold induction at 1 µM in data set [3] (setting [6]) is 2.57.
For the molecule `COc1cccc(C=Cc2nccc3ccccc23)c1OC` [C-44], the EC50 in data set [4] is ~1840 nM. In addition, the “Fold Change (KLF15 reporter activity)” value in data set [3] (setting [6]) is listed as 2.5631 fold.
As to `C[C@@H]1C[C@H]2[C@@H]3CCC4=CC(=O)C=C[C@]4(C)[C@@]3(F)[C@@H](O)C[C@]2(C)[C@@]1(O)C(=O)CO` [DEX, dexamethasone, reference compound], the “renilla activity in dose-response” value in the data set with human podocytes (higher doses (10^4 nM), relative to DMSO) is recorded as “trend towards lower renilla activity”.
